{"source": "patent US10646528B2", "about": "“Method for preparing extract of genus Panax including wild ginseng or ginseng, or cambial meristematic cells derived from genus panax or extract thereof containing rare ginsenosides in high quantity” (WELLKEY HOLDINGS LIMITED, priority 2014, dated 2020)", "test_system": "C57BL/6J mice", "test": "oral glucose tolerance test (OGTT)", "assay_type": "in vivo", "conditions": "2 g/kg D-glucose oral", "protocol": "The anti-diabetic effect of the wild ginseng CMCs prepared in Example 2 was examined by an oral glucose tolerance test OGTT. Wild ginseng CMCs were heat-treated at 95° C. for 48 hours, and an extract obtained by extracting the CMCs with 70% ethanol was administered orally. C57BL/6J mice (8-week-old, male) were fasted overnight. The weights and blood glucose levels of the C57BL/6J mice were measured, and then 2 g/kg of D-glucose was administered orally to the mice. At this time, the mice were fed with drinking water, but were not fed with feed. A change in the blood glucose level was measured at […] for 2 hours.\nThe […] was compared with resistant maltodextrin (RMD) and a red ginseng extract (RG-200), which are known as health supplements in the anti-diabetic field.", "data": [{"substance": "Resistant maltodextrin [RMD]", "values": [{"measurement": "Blood glucose level", "setting": "Time 0, 2 g/kg-treated diabetic group", "value": 169, "unit": "mg/dL"}, {"measurement": "Blood glucose level", "setting": "Time 30, 2 g/kg-treated diabetic group", "value": 485, "unit": "mg/dL"}, {"measurement": "Blood glucose level", "setting": "Time 60, 2 g/kg-treated diabetic group", "value": 350, "unit": "mg/dL"}, {"measurement": "Blood glucose level", "setting": "Time 120, 2 g/kg-treated diabetic group", "value": 282, "unit": "mg/dL"}]}]}
